Data on 2 molecules can be found in US11389446B2, “Theranostic agents” (THE HONG KONG UNIVERSITY OF SCIENCE AND TECHNOLOGY, priority 2017, dated 2022).

Holding throughout (assay type): physicochemical
A short description of series [1]: Thermogravimetric analysis (TGA), thermal stability. The settings on record: heating rate 10° C./min, nitrogen atmosphere. The method, then: ^1H (400 MHz) and ^13C (100 MHz) nuclear magnetic resonance (NMR) spectra were recorded on a Bruker AV 400 spectrometer by using CDCl3 or DMSO-d6 as the solvent. High-resolution mass spectra (HRMS) were measured on a GCT premier CAB048 mass spectrometer in MALDI-TOF mode. Thermogravimetric analysis (TGA) measurement was conducted on a TA TGA Q5000 with a heating rate of 10° C./min under nitrogen atmosphere. The UV-vis-NIR absorption spectra were performed on a PerkinElmer Lambda 365 spectrophotometer. The photoluminescence (PL) spectra were conducted using a Horiba Fluorolog-3 spectrofluorometer. Dynamic light scattering (DLS) was performed on a 90 plus particle size analyzer. Transmission electron microscopy (TEM) images were obtained on a JEM-2010F transmission electron microscope with an accelerating voltage of 200 kV.
(§1) For the RONS-stability study, two kinds of RONS were used, i.e., ONOO^− and .OH, which were prepared according to the literature. The absorption and photoluminescence spectra were recorded before and after addition of 0.4 mM of RONS. […] Then the photostability of TPA-T-TQ ONPs was evaluated along with ICG under continuous 808 nm laser irradiation (0.8 W/cm^2) by recording the apparent colors and absorption spectra after laser irradiation for different times. […]

Another series is described as follows: RONS-stability study. As to conditions: PBS, ICG read at 780 nm. The method, then: For the RONS-stability study, two kinds of RONS were used, i.e., ONOO^− and .OH, which were prepared according to the literature. The absorption and photoluminescence spectra were recorded before and after addition of 0.4 mM of RONS. The stabilities of the contrast agents in terms of thermal and photothermal stabilities as well as photobleaching and RONS resistances are crucial for PAI/PTT applications in vivo because incorrect or misleading signals, weakened therapeutic efficacy, and harmful side effects can result if the structure of the agent is destroyed, especially in living systems. Thermogravimetric analysis (TGA) was first carried out to measure the thermal stability of TPA-T-TQ. The decomposition temperature for 5% weight loss of TPA-T-TQ was above 400° C. […] Then the photostability of TPA-T-TQ ONPs was evaluated along with ICG under continuous 808 nm laser irradiation (0.8 W/cm^2) by recording the apparent colors and absorption spectra after laser irradiation for different times. […]
Another important issue related to in vivo applications is the physiological stability against highly reactive molecules such as RONS. […] Therefore, the stability of TPA-T-TQ ONPs and ICG in the presence of two kinds of RONS, peroxynitrite (ONOO^−) and hydroxyl radical (.OH), were measured under physiological conditions. […]

Series [2] in a line: Photostability under continuous 808 nm laser irradiation. The settings on record: PBS pH 7.4, 808 nm laser 0.8 W/cm^2, 15 min. Here is the method: (§2) For the photostability study, PBS solutions (pH 7.4) of TPA-T-TQ ONPs and ICG were irradiated under 808-nm laser (0.8 W/cm^2), and the absorption spectra were measured at different time points. For the anti-photobleaching study, the temperatures of the sample solutions were recorded during five circles of heating and cooling. In one heating-cooling circle, the NIR laser first irradiated the samples for 5 min to reach a steady state, then the laser was removed and the samples were naturally cooled down to ambient temperature in 6 min.
as §1
(§3) Then, the anti-photobleaching properties of TPA-T-TQ ONPs and ICG were evaluated by alternative heating and cooling processes (the NIR laser first irradiated the samples for 5 min to heat them up, then the laser was removed, and the samples were naturally cooled down to ambient temperature in 6 min).

The nature of series [3]: Photothermal performance in PBS under 808 nm laser. The settings on record: PBS pH 7.4, 100 μM, 808 nm laser 0.8 W/cm^2, 5 min. The method, then: The PBS solution (pH 7.4) of TPA-T-TQ ONPs and ICG in different concentrations were continuously exposed to NIR laser of 808 nm with a power intensity of 0.8 W/cm^2 for 5 min. The temperature was measured every 20 s and stopped until the temperature nearly reached a plateau. The corresponding IR thermal images were also recorded. To evaluate the photothermal conversion property, we quantitatively measured the temperature change of TPA-T-TQ ONP solution at different concentrations as a function of 808 nm laser (0.8 W/cm^2) irradiation time. As depicted in FIG. 9B, temperature increases very fast initially, and reaches a plateau after 3 min laser irradiation. It is noted that the eventual temperature at the plateau depends on the ONP concentration. The temperature increase of ONPs and ICG solutions upon exposure to 808 nm laser irradiation was compared. […] The difference in temperature elevation of the two samples at various irradiation times can be intuitively visualized from the infrared (IR) thermal images (FIG. 9A).

Series [4] in a line: Anti-photobleaching study, five circles of heating-cooling. As to conditions: 100 μM, 808 nm 0.8 W/cm^2. The method, then:
as §2, §3

The mark [5] stands for this setting: after two circles of heating-cooling.

With `Cc1ccc(N(c2ccc(-c3ccc(-c4c5nsnc5c(-c5ccc(-c6ccc(N(c7ccc(C)cc7)c7ccc(C(C)(C)C)cc7)cc6)s5)c5nc(-c6ccccc6)c(-c6ccccc6)nc45)s3)cc2)c2ccc(C(C)(C)C)cc2)cc1` [TPA-T-TQ, 4,4′-((6,7-Diphenyl-[1,2,5]thiadiazolo[3,4-g]quinoxaline-4,9-diyl)bis(thiophene-5,2-diyl))bis(N-(4-(tert-butyl)phenyl)-N-(p-tolyl)aniline)], the “decomposition temperature for 5% weight loss” value in series [1] was “above 400 °C”.
In the case of `CC1(C)C(/C=C/C=C/C=C/C=C2\N(CCCCS(=O)(=O)O)c3ccc4ccccc4c3C2(C)C)=[N+](CCCCS(=O)(=O)[O-])c2ccc3ccccc3c21` [ICG, indocyanine green], the “maximal absorption intensity relative to the original value after .OH” value in “RONS-stability study” (400 μM .OH for 1 min) is approximately 4%. Further, in the series “RONS-stability study” (400 μM ONOO^− for 1 min), the “maximal absorption intensity relative to the original value after ONOO^−” value was “about 60%”. Also, the “colors and absorption spectra / maximal absorption intensity after NIR light irradiation” value in series [2] was “nearly drops to zero”. The “temperature increase ΔT in 5 min” value in series [3] is approximately 43 °C. In series [4] (setting [5]), the “temperature elevation relative to the original value” is “about 20%” and the “temperature elevation ΔT after two circles” value was approximately 10 °C. Also, the “temperature elevation ΔT, original value” in series [4] (first heating) was approximately 44 °C.
